Laboratory results taken from patent US8178506B2, “Oligomeric compounds and compositions for use in modulation of small non-coding RNAs” (Regulus Therapeutics Inc., priority 2003, dated 2012).
In the oligonucleotide strings, read from the 5' end, every base follows the letter of its sugar. An asterisk marks phosphorothioate; unmarked linkages are phosphodiester. Other units and linkages are bracketed, terminal groups are in braces. A string of capitals states the bases alone. e = 2'-O-(2-methoxyethyl) (MOE); [5mC] = 5-methylcytosine; d = 2'-deoxy (DNA)

Assays:
IL-12 mRNA = IL-12 mRNA in LPS-activated primary murine macrophages; type: cell-based, mouse; conditions: for IL-12 mRNA expression, % UTC: LPS, average of 3 treatments; for IL-12 mRNA expression, −IFN % UTC: 300 nM oligomeric compound and LPS, no IFN-gamma pretreatment, single experiment; for IL-12 mRNA expression, −IFN % UTC / IL-12 mRNA expression, +IFN % UTC: normalized to LPS-treated cells without oligomeric compound; for IL-12 mRNA expression, +IFN % UTC: 300 nM oligomeric compound, stimulation with IFN-gamma and LPS, average of 2 experiments
adipocytes = test: Triglyceride accumulation assay in adipocytes; type: cell-based, human; conditions: differentiating adipocytes transfected with oligomeric compound; Table 75

Row | Substance | IL-12 mRNA expression, −IFN % UTC (IL-12 mRNA) [% UTC] | IL-12 mRNA expression, +IFN % UTC (IL-12 mRNA) [% UTC] | TG (triglyceride accumulation) (adipocytes) | also measured
1 | 129690 (antisense TTAGAATACGTCGCGTTATG; sugars from the 5' end e5 d10 e5, all phosphorothioate, methylation of C not given here) [compound 129690] | 73 | 129 |  | IL-12 mRNA expression, % UTC (IL-12 mRNA; 75 nM, +IFN): 66 % UTC; IL-12 mRNA expression, % UTC (IL-12 mRNA; 75 nM, −IFN): 114 % UTC; IL-12 mRNA expression, % UTC (IL-12 mRNA; 150 nM, +IFN): 54 % UTC; IL-12 mRNA expression, % UTC (IL-12 mRNA; 150 nM, −IFN): 109 % UTC; IL-12 mRNA expression, % UTC (IL-12 mRNA; 300 nM, +IFN): 66 % UTC; IL-12 mRNA expression, % UTC (IL-12 mRNA; 300 nM, −IFN): 101 % UTC; IL-12 mRNA expression, % UTC (IL-12 mRNA; 600 nM, +IFN): 81 % UTC; IL-12 mRNA expression, % UTC (IL-12 mRNA; 600 nM, −IFN): 128 % UTC
2 | 327873 (antisense e[5mC]*eT*eA*e[5mC]*e[5mC]*eA*eT*eA*eG*eG*eG*eT*eA*eA*eA*eA*e[5mC]*e[5mC]*eA*e[5mC]*eT) [compound 327873] |  |  | 105 percentage of untreated control (UTC) | 
3 | 327924 (antisense eG*e[5mC]*eA*eA*eG*e[5mC]*e[5mC]*e[5mC]*eA*eG*eA*e[5mC]*e[5mC]*eG*e[5mC]*eA*eA*eA*eA*eA*eG) [compound 327924] | 171 | 88 |  | 
4 | 327935 (antisense e[5mC]*eT*eA*e[5mC]*e[5mC]*eT*eG*e[5mC]*eA*e[5mC]*eT*eA*eT*eA*eA*eG*e[5mC]*eA*e[5mC]*eT*eT*eT*eA) [compound 327935] | 254 | 24 | 41 percentage of untreated control (UTC) | 
5 | 327936 (antisense eA*e[5mC]*eA*eG*e[5mC]*eT*eG*eG*eT*eT*eG*eA*eA*eG*eG*eG*eG*eA*e[5mC]*e[5mC]*eA*eA) [compound 327936] | 221 | 55 | 23 percentage of untreated control (UTC) | 
6 | 327940 (antisense eG*eA*eA*e[5mC]*eA*eG*eG*eT*eA*eG*eT*e[5mC]*eT*eG*eA*eA*e[5mC]*eA*e[5mC]*eT*eG*eG*eG) [compound 327940] | 228 | 107 | 62 percentage of untreated control (UTC) | 
7 | 327944 (antisense eA*eA*eA*eG*eT*eG*eT*e[5mC]*eA*eG*eA*eT*eA*e[5mC]*eG*eG*eT*eG*eT*eG*eG) [compound 327944] |  |  | 38 percentage of untreated control (UTC) | 
8 | 327945 (antisense e[5mC]*eT*eG*eT*eT*e[5mC]*e[5mC]*eT*eG*e[5mC]*eT*eG*eA*eA*e[5mC]*eT*eG*eA*eG*e[5mC]*e[5mC]*eA) [compound 327945] | 202 | 68 | 48 percentage of untreated control (UTC) | 
9 | 327946 (antisense eA*eG*eG*e[5mC]*eG*eA*eA*eG*eG*eA*eT*eG*eA*e[5mC]*eA*eA*eA*eG*eG*eG*eA*eA) [compound 327946] |  |  | 82 percentage of untreated control (UTC) | 
10 | 327949 (antisense e[5mC]*eA*e[5mC]*eA*eA*eA*eT*eT*e[5mC]*eG*eG*eA*eT*e[5mC]*eT*eA*e[5mC]*eA*eG*eG*eG*eT*eA) [compound 327949] |  |  | 43 percentage of untreated control (UTC) | 
11 | 327950 (antisense eT*e[5mC]*eA*eG*eT*eT*eT*eT*eG*e[5mC]*eA*eT*eA*eG*eA*eT*eT*eT*eG*e[5mC]*eA*e[5mC]*eA) [compound 327950] |  |  | 125 percentage of untreated control (UTC) | 
12 | 327952 (antisense e[5mC]*eT*eA*e[5mC]*eG*e[5mC]*eG*eT*eA*eT*eT*e[5mC]*eT*eT*eA*eA*eG*e[5mC]*eA*eA*eT*eA) [compound 327952] |  |  | 93 percentage of untreated control (UTC) | 
13 | 327957 (antisense e[5mC]*eA*e[5mC]*eA*eA*eG*eT*eT*e[5mC]*eG*eG*eA*eT*e[5mC]*eT*eA*e[5mC]*eG*eG*eG*eT*eT) [compound 327957] |  |  | 29 percentage of untreated control (UTC) | 
14 | 327958 (antisense e[5mC]*e[5mC]*eG*eG*e[5mC]*eT*eG*e[5mC]*eA*eA*e[5mC]*eA*e[5mC]*eA*eA*eG*eA*e[5mC]*eA*e[5mC]*eG*eA) [compound 327958] | 188 | 60 | 28 percentage of untreated control (UTC) | 
15 | 327959 (antisense e[5mC]*eA*eG*e[5mC]*e[5mC]*eG*e[5mC]*eT*eG*eT*e[5mC]*eA*e[5mC]*eA*e[5mC]*eG*e[5mC]*eA*e[5mC]*eA*eG) [compound 327959] | 183 | 20 | 33 percentage of untreated control (UTC) | 
16 | 327961 (antisense eG*eG*eG*eG*eT*eA*eT*eT*eT*eG*eA*e[5mC]*eA*eA*eA*e[5mC]*eT*eG*eA*e[5mC]*eA) [compound 327961] | 203 | 10 | 77 percentage of untreated control (UTC) | 
17 | 327963 (antisense eA*eA*e[5mC]*e[5mC]*eT*eA*eT*e[5mC]*e[5mC]*eT*eG*eA*eA*eT*eT*eA*e[5mC]*eT*eT*eG*eA*eA) [compound 327963] | 224 | 23 | 124 percentage of untreated control (UTC) | 
18 | 327964 (antisense e[5mC]*e[5mC]*eA*eA*eG*eT*eT*e[5mC]*eT*eG*eT*e[5mC]*eA*eT*eG*e[5mC]*eA*e[5mC]*eT*eG*eA) [compound 327964] |  |  | 60 percentage of untreated control (UTC) | 
19 | 327965 (antisense eA*eT*e[5mC]*eA*e[5mC]*eA*eT*eA*eG*eG*eA*eA*eT*eA*eA*eA*eA*eA*eG*e[5mC]*e[5mC]*eA*eT*eA) [compound 327965] |  |  | 116 percentage of untreated control (UTC) | 
20 | 327971 (antisense eG*eG*eA*eA*eA*eT*e[5mC]*e[5mC]*e[5mC]*eT*eG*eG*e[5mC]*eA*eA*eT*eG*eT*eG*eA*eT) [compound 327971] | 146 | 17 | 45 percentage of untreated control (UTC) | 
